From patent publication US11767322B2 (BRISTOL-MYERS SQUIBB COMPANY, priority 2020, dated 2023)
Read-outs that look alike come from different tables or passages of the source.

Legend:
[1] = molecular target: T1, His-GST-TVMV-hRIPK1(1-324) (Homo sapiens, UniProt Q13546); assay: biochemical; assay type: binding
T1 construct: The coding region of human RIPK1(1-324) flanked by NdeI site at 5′ end; made in house; host or cells: Spodoptera frugiperda Sf9 insect cells (baculovirus, Bac-to-Bac)
T1 sequence (Q13546 1-324): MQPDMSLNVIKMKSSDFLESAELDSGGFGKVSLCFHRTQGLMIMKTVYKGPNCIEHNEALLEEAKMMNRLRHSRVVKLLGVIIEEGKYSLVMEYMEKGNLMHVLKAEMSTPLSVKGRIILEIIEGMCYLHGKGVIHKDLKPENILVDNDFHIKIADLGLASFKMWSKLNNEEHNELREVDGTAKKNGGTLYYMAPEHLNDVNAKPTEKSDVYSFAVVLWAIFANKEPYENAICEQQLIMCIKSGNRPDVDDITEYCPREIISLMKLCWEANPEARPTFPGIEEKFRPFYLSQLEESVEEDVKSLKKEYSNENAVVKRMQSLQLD

[2] = system: MLKL phosphorylation in HT29-L23 human colorectal adenocarcinoma cells; assay: MLKL phosphorylation high-content assay; assay type: cell-based
[3] = molecular target: GST-tagged PIK3Cδ in complex with PIK3R1 (Homo sapiens, UniProt O00329); assay: PI3Kδ HTRF binding assay; conditions: read-out: PIK3CD IC50
[4] = HTRF probe displacement, 1 h at rt, read-out: RIPK1 IC50
[5] = read-out: pMLKL IC50, HT29-L23 cells, necroptosis induced with TNFα, SMAC mimetic and Z-VAD, 6 h, maximal inhibition defined by Nec1s
[6] = HTRF probe displacement, 1 h at rt
[7] = Homo sapiens, 6 h, read-out: pMLKL IC50, HT29-L23 cells, necroptosis induced with TNFα, SMAC mimetic and Z-VAD, 6 h, maximal inhibition defined by Nec1s
[8] = Table 22, compounds of the present invention, read-out: RPIK1 IC50

Sequence of GST-tagged PIK3Cδ in complex with PIK3R1 (O00329 whole entry): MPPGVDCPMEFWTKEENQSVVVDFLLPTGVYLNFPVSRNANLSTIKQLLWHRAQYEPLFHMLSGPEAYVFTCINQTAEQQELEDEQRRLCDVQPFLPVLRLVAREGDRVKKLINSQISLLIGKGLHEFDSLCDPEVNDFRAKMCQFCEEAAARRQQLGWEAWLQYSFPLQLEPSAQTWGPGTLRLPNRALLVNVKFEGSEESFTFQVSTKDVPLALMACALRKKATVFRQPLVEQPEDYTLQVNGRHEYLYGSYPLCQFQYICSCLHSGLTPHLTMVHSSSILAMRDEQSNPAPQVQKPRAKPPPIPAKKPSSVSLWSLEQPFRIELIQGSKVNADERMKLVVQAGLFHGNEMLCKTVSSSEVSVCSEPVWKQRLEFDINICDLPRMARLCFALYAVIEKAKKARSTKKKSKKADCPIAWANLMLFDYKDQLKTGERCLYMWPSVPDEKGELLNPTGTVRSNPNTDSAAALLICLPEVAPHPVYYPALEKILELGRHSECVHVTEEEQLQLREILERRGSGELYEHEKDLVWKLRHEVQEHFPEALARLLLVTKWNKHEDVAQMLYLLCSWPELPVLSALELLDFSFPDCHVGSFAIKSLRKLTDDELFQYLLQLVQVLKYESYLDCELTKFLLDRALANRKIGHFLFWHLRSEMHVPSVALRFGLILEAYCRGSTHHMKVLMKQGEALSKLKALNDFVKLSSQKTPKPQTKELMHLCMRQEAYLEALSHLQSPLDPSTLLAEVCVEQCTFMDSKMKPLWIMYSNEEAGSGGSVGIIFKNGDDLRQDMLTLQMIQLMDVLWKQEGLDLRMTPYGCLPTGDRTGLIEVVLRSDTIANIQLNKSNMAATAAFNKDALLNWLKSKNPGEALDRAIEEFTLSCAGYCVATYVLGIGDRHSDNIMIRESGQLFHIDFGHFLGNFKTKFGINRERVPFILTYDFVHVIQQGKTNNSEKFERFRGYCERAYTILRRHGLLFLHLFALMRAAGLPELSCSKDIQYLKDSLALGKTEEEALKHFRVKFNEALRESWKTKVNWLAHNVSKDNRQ
Sequence of GST-tagged PIK3Cδ in complex with PIK3R1 (P27986 whole entry partner): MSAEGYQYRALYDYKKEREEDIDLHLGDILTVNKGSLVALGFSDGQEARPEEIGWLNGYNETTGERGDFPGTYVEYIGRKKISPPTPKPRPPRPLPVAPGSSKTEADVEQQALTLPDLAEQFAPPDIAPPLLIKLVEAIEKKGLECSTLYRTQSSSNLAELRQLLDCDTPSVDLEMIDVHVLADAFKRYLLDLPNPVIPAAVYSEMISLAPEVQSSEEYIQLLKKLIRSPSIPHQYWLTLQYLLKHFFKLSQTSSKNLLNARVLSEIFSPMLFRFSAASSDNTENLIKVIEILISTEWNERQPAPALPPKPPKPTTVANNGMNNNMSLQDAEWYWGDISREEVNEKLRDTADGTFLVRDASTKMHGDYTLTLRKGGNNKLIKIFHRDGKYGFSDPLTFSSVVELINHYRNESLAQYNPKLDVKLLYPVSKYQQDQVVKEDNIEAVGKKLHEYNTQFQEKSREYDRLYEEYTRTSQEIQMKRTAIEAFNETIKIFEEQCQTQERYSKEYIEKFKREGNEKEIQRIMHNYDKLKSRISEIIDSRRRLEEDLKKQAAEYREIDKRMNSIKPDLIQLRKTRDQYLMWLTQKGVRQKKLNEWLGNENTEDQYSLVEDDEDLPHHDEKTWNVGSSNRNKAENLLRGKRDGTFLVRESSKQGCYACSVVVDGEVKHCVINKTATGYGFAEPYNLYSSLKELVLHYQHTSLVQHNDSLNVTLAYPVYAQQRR

Structure (SMILES) | IC50 [1, 4] [nM] | IC50 [2, 5] [nM] | IC50 [3, 6] [nM] | IC50 [2, 7] [nM] | IC50 [1, 8] [nM] | IC50 ([2]; Homo sapiens, 6 h, HT29-L23 cells, necroptosis induced with TNFα, SMAC mimetic and Z-VAD, 6 h, maximal inhibition defined by Nec1s, read-out: pMLKL IC50) [nM] | IC50 ([2]; Homo sapiens, Table 22, compounds of the present invention, read-out: pMLKL IC50) [nM] | IC50 ([2]; Homo sapiens, read-out: pMLKL IC50, Table 22, compounds of the present invention) [nM] | IC50 [3] [nM]
Cc1ccc(-c2ccn3nc(N)nc3c2)c(F)c1C(=O)NC(CF)CC(O)c1ccc(F)cc1 (single isomer, unassigned) [Example 25, 3-(2-amino-[1,2,4]triazolo[1,5-a]pyridin-7-yl)-2-fluoro-N-(1-fluoro-4-(4-fluorophenyl)-4-hydroxybutan-2-yl)-6-methylbenzamide] | 3.6 | 4.1 | > 15000 |  |  |  |  |  | 
CCc1ccc(-c2ccn3nc(N)nc3c2)cc1C(=O)NCC[C@H](O)c1ccc(Cl)cc1 [Example 150, (S)-5-(2-amino-[1,2,4]triazolo[1,5-a]pyridin-7-yl)-N-(3-(4-chlorophenyl)-3-hydroxypropyl)-2-ethylbenzamide] | 1.8 |  | > 15000 | 5.7 |  |  |  |  | 
Cc1c(C(=O)NC(C)CC(O)c2ccc(Cl)cc2)cc(-c2ccn3nc(N)nc3c2)c(F)c1F (racemic) [Example 101, 5-(2-amino-[1,2,4]triazolo[1,5-a]pyridin-7-yl)-N-(4-(4-chlorophenyl)-4-hydroxybutan-2-yl)-3,4-difluoro-2-methylbenzamide] | 4.8 | 2.9 | > 15000 |  |  |  |  |  | 
Cc1ccc(-c2ccn3nc(N)nc3c2)cc1C(=O)NCC[C@H](O)c1ccc(Cl)cc1 [Example 149, (S)-5-(2-amino-[1,2,4]triazolo[1,5-a]pyridin-7-yl)-N-(3-(4-chlorophenyl)-3-hydroxypropyl)-2-methylbenzamide] | 8.2 |  | > 15000 |  | 8.2 | 1.3 | 1.3 |  | 
Cc1ccc(-c2ccn3nc(N)nc3c2)c(Cl)c1C(=O)NCC[C@H](O)c1ccc(Cl)cc1 [Example 145, (S)-3-(2-amino-[1,2,4]triazolo[1,5-a]pyridin-7-yl)-2-chloro-N-(3-(4-chlorophenyl)-3-hydroxypropyl)-6-methylbenzamide] | 21 |  | > 15000 | 35 |  |  |  |  | 
Nc1nc2cc(-c3ccc(F)c(C(=O)NCCC4(c5ccc(F)cc5)CC4)c3F)ccn2n1 [Example 249, 3-(2-amino-[1,2,4]triazolo[1,5-a]pyridin-7-yl)-2,6-difluoro-N-(2-(1-(4-fluorophenyl)cyclopropyl)ethyl)benzamide] | 2.1 |  | > 15000 | 10 |  |  |  |  | 
Cc1ccc(-c2ccn3nc(N)nc3c2)c(F)c1C(=O)NCC(F)(F)C(O)c1ccc(F)c(F)c1 (single isomer, unassigned) [Example 199, 3-(2-amino-[1,2,4]triazolo[1,5-a]pyridin-7-yl)-N-(3-(3,4-difluorophenyl)-2,2-difluoro-3-hydroxypropyl)-2-fluoro-6-methylbenzamide] | 1.4 | 0.6 | > 15000 |  |  |  |  |  | 
C#Cc1ccc([C@@H](O)CCNC(=O)c2c(C)ccc(-c3ccn4nc(N)nc4c3)c2F)cc1 [Example 142, 3-{2-amino-[1,2,4]triazolo[1,5-a]pyridin-7-yl}-N-[(3S)-3-(4-ethynylphenyl)-3-hydroxypropyl]-2-fluoro-6-methylbenzamide] | 3.3 |  | > 15000 | 2.5 |  |  |  |  | 
Cc1ccc(-c2ccn3nc(N)nc3c2)c(F)c1C(=O)NCC[C@@H](O)c1ccc(Cl)cc1 [Example 152, (R)-3-(2-amino-[1,2,4]triazolo[1,5-a]pyridin-7-yl)-N-(3-(4-chlorophenyl)-3-hydroxypropyl)-2-fluoro-6-methylbenzamide] | 2.3 |  | > 15000 | 0.5 | 2.3 |  |  | 0.5 | 
Cc1ccc(-c2ccn3nc(N)nc3c2)c(F)c1C(=O)NCCC(O)C1CCCC1 (stereo not shown) [Example 247, 3-(2-amino-[1,2,4]triazolo[1,5-a]pyridin-7-yl)-N-(3-cyclopentyl-3-hydroxypropyl)-2-fluoro-6-methylbenzamide] | 13 |  | > 15000 | 21 |  |  |  |  | 
Cc1ccc(-c2ccn3nc(N)nc3c2F)c(F)c1C(=O)NCC[C@H](O)c1ccc(Cl)cc1 [Example 132, (S)-3-(2-amino-8-fluoro-[1,2,4]triazolo[1,5-a]pyridin-7-yl)-N-(3-(4-chlorophenyl)-3-hydroxypropyl)-2-fluoro-6-methylbenzamide] | 8.4 |  | > 15000 | 1.1 |  |  |  |  | 
Nc1nc2cc(-c3ccc(Cl)c(C(=O)NCC(F)C(O)c4ccc(F)cc4)c3F)ccn2n1 (stereo not drawn) [Example 130, 3-(2-amino-[1,2,4]triazolo[1,5-a]pyridin-7-yl)-6-chloro-2-fluoro-N-(2-fluoro-3-(4-fluorophenyl)-3-hydroxypropyl)benzamide enantiomeric mixture 1] | 7.4 |  | 4900 | 2.9 |  |  |  |  | 
Cc1cc(F)c(-c2ccn3nc(N)nc3c2)cc1C(=O)NCC(F)(F)C(O)c1ccc(F)cc1 (single isomer, unassigned) [Example 97, 5-(2-amino-[1,2,4]triazolo[1,5-a]pyridin-7-yl)-N-(2,2-difluoro-3-(4-fluorophenyl)-3-hydroxypropyl)-4-fluoro-2-methylbenzamide] | 1.3 | 6.4 | > 15000 |  |  |  |  |  | 
COc1ccc(-c2ccn3nc(N)nc3c2)c(F)c1C(=O)NCC[C@@H](O)c1ccc(Cl)cc1 [Example 148, (R)-3-(2-amino-[1,2,4]triazolo[1,5-a]pyridin-7-yl)-N-(3-(4-chlorophenyl)-3-hydroxypropyl)-2-fluoro-6-methoxybenzamide] | 8.3 |  |  | 17 |  |  |  |  | 5000
Cc1ccc(-c2ccn3nc(N)nc3c2)c(F)c1C(=O)NCCC(O)C1CCCCC1 (single isomer, unassigned) [Example 42, 3-(2-amino-[1,2,4]triazolo[1,5-a]pyridin-7-yl)-N-(3-cyclohexyl-3-hydroxypropyl)-2-fluoro-6-methylbenzamide] | 1.3 | 2.8 | > 15000 |  |  |  |  |  | 
Nc1nc2cc(-c3ccc(Cl)c(C(=O)NCC(F)(F)C(O)c4ccc(OC(F)F)cc4)c3F)ccn2n1 (stereo not shown) [Example 186, 3-(2-amino-[1,2,4]triazolo[1,5-a]pyridin-7-yl)-6-chloro-N-(3-(4-(difluoromethoxy)phenyl)-2,2-difluoro-3-hydroxypropyl)-2-fluorobenzamide] | 2.9 | 0.2 | 12000 |  |  |  |  |  | 
Cc1cc(F)c(-c2ccn3nc(N)nc3c2)cc1C(=O)NCCC(O)c1ccc(Cl)cn1 (single isomer, unassigned) [Example 6, 5-(2-amino-[1,2,4]triazolo[1,5-a]pyridin-7-yl)-N-(3-(5-chloropyridin-2-yl)-3-hydroxypropyl)-4-fluoro-2-methylbenzamide] | 5.8 | 2.3 | > 15000 |  |  |  |  |  | 
Nc1nc2cc(-c3ccc(Cl)c(C(=O)NCC(F)(F)C(O)c4ccc(OC(F)F)cc4)c3F)ccn2n1 (stereo not shown) [Example 187, 3-(2-amino-[1,2,4]triazolo[1,5-a]pyridin-7-yl)-6-chloro-N-(3-(4-(difluoromethoxy)phenyl)-2,2-difluoro-3-hydroxypropyl)-2-fluorobenzamide] | 3.2 | 1.7 | > 15000 |  |  |  |  |  | 
Cc1ccc(-c2ccn3nc(N)nc3c2)c(F)c1C(=O)NC(C)CC(O)c1ccc(F)cc1 (single isomer, unassigned) [Example 36, 3-(2-amino-[1,2,4]triazolo[1,5-a]pyridin-7-yl)-2-fluoro-N-(4-(4-fluorophenyl)-4-hydroxybutan-2-yl)-6-methylbenzamide] | 4.5 | 2.7 | > 15000 |  |  |  |  |  | 
Nc1nc2cc(-c3ccc(Cl)c(C(=O)NCC(F)(F)C(=O)c4ccc(F)cc4)c3F)ccn2n1 [Example 280, 3-(2-amino-[1,2,4]triazolo[1,5-a]pyridin-7-yl)-6-chloro-N-(2,2-difluoro-3-(4-fluorophenyl)-3-oxopropyl)-2-fluorobenzamide] | 15 |  | 11000 | 1.4 |  |  |  |  | 
Cc1ccc(-c2ccn3nc(N)nc3c2)c(F)c1C(=O)NCCC1(c2ccc(F)cc2)CC1 [Example 16, 3-(2-amino-[1,2,4]triazolo[1,5-a]pyridin-7-yl)-2-fluoro-N-(2-(1-(4-fluorophenyl)cyclopropyl)ethyl)-6-methylbenzamide] | 0.7 |  | > 15000 | 0.4 |  |  |  |  | 
Nc1nc2cc(-c3ccc(Cl)c(C(=O)NC[C@@H](F)[C@@H](O)c4ccc(F)cc4)c3F)ccn2n1 (single isomer, unassigned) [Example 298] | 2.9 |  | 8000 | 0.5 |  |  |  |  | 
Nc1nc2cc(-c3ccc(Cl)c(C(=O)NCC(F)(F)C(O)c4ccc(Cl)c(Cl)c4)c3F)ccn2n1 (single isomer, unassigned) [Example 265, 3-{2-amino-[1,2,4]triazolo[1,5-a]pyridin-7-yl}-6-chloro-N-[3-(3,4-dichlorophenyl)-2,2-difluoro-3-hydroxypropyl]-2-fluorobenzamide] | 4.1 | 3.6 | > 15000 |  |  |  |  |  | 
